Converted amounts (≈) assume the structure as drawn. Like-named read-outs stand apart in the source and are kept apart here. Positions of bridges follow the written chain, without caps; N, C: chain ends. Non-standard residues stand in square brackets, D forms with d. Residues, ends and D or L forms follow the SMILES beside them. *: point of attachment. Benzoyl(4-Ph) = O=C(c1ccc(-c2ccccc2)cc1)*; Octanoyl(6-Me) = CCC(C)CCCCC(=O)*; Nonanoyl = CCCCCCCCC(=O)*; Octanoyl = CCCCCCCC(=O)*; Dab = NCC[C@H](N)C(=O)O; Abu = CC[C@H](N)C(=O)O; Dap = NC[C@H](N)C(=O)O; Aib = CC(C)(N)C(=O)O
Tests used:
Acinetobacter baumannii = test system: Acinetobacter baumannii
In short: (§1)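 MICs were determined for the lipopeptides, tested as trifluoroacetic acid salts, by broth microdilution in cation-adjusted Mueller-Hinton broth following CLSI standards (M100-S18). Polymyxin B sulphate served as the control.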

Enterobacter cloacae = test system: Enterobacter cloacae
In short: as §1

Klebsiella pneumoniae = test system: Klebsiella pneumoniae
In short: as §1

Pseudomonas aeruginosa = test system: Pseudomonas aeruginosa
In short: as §1

P. aeruginosa ATCC 27853 = test: In vivo efficacy in mouse blood infection model (neutropenic Swiss mice); details: compound, free base 4 mg/kg intravenously 2 h after inoculation, blood at 4 h
In short: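 Neutropenic Swiss mice (cyclophosphamide 150 mg/kg day −4, 100 mg/kg day −1, i.p.) infected i.v. with early log-phase bacteria; 4 mg/kg free base i.v. given 2 h post-inoculation. Blood CFU by cardiac puncture 4 h post-dose; Δlog10 CFU/mL treated versus saline controls.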

SMILES	MIC (Acinetobacter baumannii) [µg/mL]	Minimum inhibitory concentration (MIC), Ab ATCC 17978 (Acinetobacter baumannii) [µg/mL]	Minimum inhibitory concentration (MIC), Ab ATCC 19606 (Acinetobacter baumannii) [µg/mL]	Minimum inhibitory concentration (MIC), Ab FADDI-AB034 (Acinetobacter baumannii) [µg/mL]	Minimum inhibitory concentration (MIC), Ec FADDI-EC001 (Enterobacter cloacae) [µg/mL]	Minimum inhibitory concentration (MIC), Ec FADDI-EC003 (Enterobacter cloacae) [µg/mL]	Minimum inhibitory concentration (MIC), Ec FADDI-EC006 (Enterobacter cloacae) [µg/mL]	MIC (Klebsiella pneumoniae) [µg/mL]	MIC (Pseudomonas aeruginosa) [µg/mL]	Minimum inhibitory concentration (MIC), Pa ATCC 27853 (Pseudomonas aeruginosa) [µg/mL]	Minimum inhibitory concentration (MIC), Pa FADDI-PA022 (Pseudomonas aeruginosa) [µg/mL]	Minimum inhibitory concentration (MIC), Pa FADDI-PA025 (Pseudomonas aeruginosa) [µg/mL]	Δ log (Treated-Control at 4 h) (P. aeruginosa ATCC 27853) [log10 CFU/mL]	also measured
CCC(C)CCCCC(=O)N[C@@H](CCN)C(=O)N[C@H](C(=O)N[C@@H](CN)C(=O)N[C@H]1CCNC(=O)[C@H]([C@@H](C)O)NC(=O)[C@H](CCN)NC(=O)[C@H](CCN)NC(=O)[C@H](CC)NC(=O)[C@@H](CC(C)C)NC(=O)[C@H](CCN)NC1=O)[C@@H](C)O (stereo partly drawn) [Compound 139] ({Octanoyl(6-Me)}-[Dab]T[Dap][Dab][Dab][dL][Abu][Dab][Dab]T; lactam 4-C)	0.5 (≈ 0.443 µM)	0.25 (≈ 0.222 µM)	0.5 (≈ 0.443 µM)	0.25 (≈ 0.222 µM)	0.5 (≈ 0.443 µM)	0.25 (≈ 0.222 µM)	1 (≈ 0.887 µM)	<0.125	1 (≈ 0.887 µM)	1 (≈ 0.887 µM)	2 (≈ 1.77 µM)	1 (≈ 0.887 µM)	−3.19	
CCCCCCCC(=O)N[C@@H](CCN)C(=O)N[C@H](C(=O)N[C@@H](CN)C(=O)N[C@H]1CCNC(=O)[C@H]([C@@H](C)O)NC(=O)[C@H](CCN)NC(=O)[C@H](CCN)NC(=O)C(C)(C)NC(=O)[C@@H](Cc2ccccc2)NC(=O)[C@H](CCN)NC1=O)[C@@H](C)O [Compound 140] (Octanoyl-[Dab]T[Dap][Dab][Dab][dF][Aib][Dab][Dab]T; lactam 4-C)	2 (≈ 1.74 µM)	0.5 (≈ 0.436 µM)	2 (≈ 1.74 µM)	1 (≈ 0.872 µM)	0.5 (≈ 0.436 µM)	0.25 (≈ 0.218 µM)	1 (≈ 0.872 µM)	0.25 (≈ 0.218 µM)	1 (≈ 0.872 µM)	1 (≈ 0.872 µM)	1 (≈ 0.872 µM)	4 (≈ 3.49 µM)	−3.27	
CC[C@@H]1NC(=O)[C@@H](CC(C)C)NC(=O)[C@H](CCN)NC(=O)[C@@H](NC(=O)[C@H](CN)NC(=O)[C@@H](NC(=O)[C@H](CCN)NC(=O)c2ccc(-c3ccccc3)cc2)[C@@H](C)O)CCNC(=O)[C@H]([C@@H](C)O)NC(=O)[C@H](CCN)NC(=O)[C@H](CCN)NC1=O [Compound 142] ({Benzoyl(4-Ph)}-[Dab]T[Dap][Dab][Dab][dL][Abu][Dab][Dab]T; lactam 4-C)													−3.89	MIC (Acinetobacter baumannii; A. baumannii ATCC 19606): 1 µg/mL (≈ 0.857 µM); Minimum inhibitory concentration (MIC), Ab ATCC 17978 (Acinetobacter baumannii; Acinetobacter baumannii ATCC 17978, broth microdilution in CAMHB, TFA salt): 0.5 µg/mL; Minimum inhibitory concentration (MIC), Ab ATCC 19606 (Acinetobacter baumannii; Acinetobacter baumannii ATCC 19606, broth microdilution in CAMHB, TFA salt): 1 µg/mL; Minimum inhibitory concentration (MIC), Ab FADDI-AB034 (Acinetobacter baumannii; Acinetobacter baumannii FADDI-AB034, broth microdilution in CAMHB, TFA salt): 0.25 µg/mL; Minimum inhibitory concentration (MIC), Ec FADDI-EC001 (Enterobacter cloacae; Enterobacter cloacae FADDI-EC001, broth microdilution in CAMHB, TFA salt): 0.25 µg/mL; Minimum inhibitory concentration (MIC), Ec FADDI-EC003 (Enterobacter cloacae; Enterobacter cloacae FADDI-EC003, broth microdilution in CAMHB, TFA salt): 1 µg/mL; Minimum inhibitory concentration (MIC), Ec FADDI-EC006 (Enterobacter cloacae; Enterobacter cloacae FADDI-EC006, broth microdilution in CAMHB, TFA salt): 0.5 µg/mL; MIC (Klebsiella pneumoniae; K. pneumoniae FADDI-KP032): 0.25 µg/mL (≈ 0.214 µM); MIC (Pseudomonas aeruginosa; P. aeruginosa ATCC 27853): 1 µg/mL (≈ 0.857 µM); Minimum inhibitory concentration (MIC), Pa ATCC 27853 (Pseudomonas aeruginosa; Pseudomonas aeruginosa ATCC 27853, broth microdilution in CAMHB, TFA salt): 1 µg/mL; Minimum inhibitory concentration (MIC), Pa FADDI-PA022 (Pseudomonas aeruginosa; Pseudomonas aeruginosa FADDI-PA022, broth microdilution in CAMHB, TFA salt): 1 µg/mL; Minimum inhibitory concentration (MIC), Pa FADDI-PA025 (Pseudomonas aeruginosa; Pseudomonas aeruginosa FADDI-PA025, broth microdilution in CAMHB, TFA salt): 1 µg/mL
CCCCCCCCC(=O)N[C@@H](CCN)C(=O)N[C@H](C(=O)N[C@@H](CN)C(=O)N[C@H]1CCNC(=O)[C@H]([C@@H](C)O)NC(=O)[C@H](CCN)NC(=O)[C@H](CCN)NC(=O)[C@H](CO)NC(=O)[C@@H](Cc2ccccc2)NC(=O)[C@H](CCN)NC1=O)[C@@H](C)O [Compound 143] (Nonanoyl-[Dab]T[Dap][Dab][Dab][dF]S[Dab][Dab]T; lactam 4-C)	1 (≈ 0.86 µM)	1 (≈ 0.86 µM)	1 (≈ 0.86 µM)	0.5 (≈ 0.43 µM)	1 (≈ 0.86 µM)	0.5 (≈ 0.43 µM)	0.5 (≈ 0.43 µM)	0.25 (≈ 0.215 µM)	0.5 (≈ 0.43 µM)	0.5 (≈ 0.43 µM)	0.5 (≈ 0.43 µM)	16 (≈ 13.8 µM)	−3.47	

— USRE48335E1, “Polymyxin derivatives as antimicrobial compounds” (priority 2014, dated 2020)
